Assay results from patent publication US5684151A, “1-arylsulphonyl, arylcarbonyl and 1-arylphosphonyl-3-phenyl-1,4,5,6-tetrahydropyridazines” (priority 1995, dated 1997).
Like-named read-outs stand apart in the source and are kept apart here.

Test system: mouse (MC3T3-E1) and human (TE-85) osteoblast-line cells
Type: cell-based
Text: Compounds of the present invention have utility to treat osteoporosis through enhancement of bone calcification rather than traditional approaches which generally involve inhibition of bone degeneration or resorption. The compounds of the present invention have been evaluated as stimulators of proliferation of osteoblast cell and chick calivaria bone organ culture which is predictive of enhancement of bone mass and bone formation in vivo.
The action of select compounds to stimulate osteoblast growth was measured in culture by estimating the rate of DNA synthesis by the rate of ^3 H-thymidine incorporation into DNA. Only cells undergoing mitosis synthesized new DNA and thus only these cells incorporated the radiolabelled DNA-specific thymidine. The stimulation of the proliferation and differentiation of bone-forming cells, osteoblasts, was a prerequisite for an increase in bone formation and bone mass. The ability of agents to increase osteoblast proliferation and differentiation can be predicted by their action on cultured osteoblast-line cells in vitro. In this test, mouse (MC3T3-E1) and human (TE-85) osteoblast-line cells (American Type Tissue Culture Collection, #CRL 1543, Rockville, Md. cloned by Sudo et al., Koriyama, Japan) were cultured in vitro and the effect of various agents were tested on osteoblast cell proliferation. Cells were harvested from large culture flasks where they were allowed to grow to near confluency using trypsin. The cells were plated into 96 well culture plates, 1600 cells in 100 μL per well in Dulbencos Modified Eagle's Medium (DMEM) with 25 mM HEPES buffer, L-glutamine (584 mg/L); D-glucose (4.5 g/L) supplemented with fetal bovine sera (10%); penicillin (100 units/mL) and streptomycin (100 mcg/mL); sodium pyruvate (10 μM final concentration). The cells were allowed to plate overnight in DMEM containing 10% fetal bovine sera at 37° C. in an atmosphere of 5% CO2/95% air. Following their placement into 96 well culture plates all the osteoblast-line cells, either the MC3T3-E1 or the TE-85 cell lines, were allowed an additional 24 hours preincubation period in media containing only 0.1% fetal bovine sera.
Twenty hours later, a 20 μL aliquot of media containing 0.4 μCi of ^3 H-thymidine was added to each culture well. The cells were then incubated an additional 4 hours. The incubation was terminated by aspirating the media and washing with HBSS (Hank's Balanced Salt Solution). The cells were then treated with 100 μL of 0.5% trypsin and 5.3 mM EDTA for 30 minutes at room temperature. The cells were then aspirated onto glass fiber filter and washed with water. The radioactivity on the filters was quantified by liquid scintillation spectroscopy. The rate of ^3 H-thymidine incorporation into DNA was then utilized as an index of cell proliferation. The results are shown in Table 13 expressed as % times control where the control is 100%. […]

Row | Compound | Osteoblast Cell Proliferation, 3H-thymidine incorporation vs control (100%) (10^-7) [%] | Osteoblast Cell Proliferation, 3H-thymidine incorporation vs control (100%) (10^-8) [%] | Osteoblast Cell Proliferation, 3H-thymidine incorporation vs control (100%) (10^-9) [%] | Osteoblast Cell Proliferation, 3H-thymidine incorporation vs control (100%) (10^-10) [%] | Osteoblast Cell Proliferation, 3H-thymidine incorporation vs control (100%) (10^-6) [%]
1 | CC1CC(c2ccccc2)=NN(C(=O)c2ccc(Cl)c(Cl)c2)C1 (racemic) [Compound 233, (R,S)-1-(3,4-dichlorobenzoyl)-5-methyl-3-phenyl-1,4,5,6-tetrahydropyridazine] | 130 | 132 | 130 | 138 | 
2 | CC1CC(c2ccccc2)=NN(C(=O)c2ccc(F)c(F)c2)C1 (racemic) [Compound 235, (R,S)-1-(3,4-difluorobenzoyl)-5-methyl-3-phenyl-1,4,5,6-tetrahydropyridazine] | 86 | 87 | 92 | 88 | 
3 | CC1CC(c2ccccc2)=NN(C(=S)c2ccc(Cl)c(Cl)c2)C1 (racemic) [Compound 248, (R,S)-1-(3,4-dichlorothiobenzoyl)-5-methyl-3-phenyl-1,4,5,6-tetrahydropyridazine] | 142 | 130 | 140 | 149 | 
4 | O=S(=O)(c1cccc2ccccc12)N1CCCC(c2ccc(Cl)cc2)=N1 [Compound 44] | 107 | 105 | 95 | 87 | 86
5 | CCCCCCc1ccc(S(=O)(=O)N2CCCC(c3ccc(Cl)c(Cl)c3)=N2)cc1 [Compound 121] | 123 | 122 | 120 | 181 | 120
6 | O=S(=O)(/C=C/c1ccc(-c2ccccc2)cc1)N1CCCC(c2ccc(Cl)c(Cl)c2)=N1 [Compound 168] | 82 | 82 | 76 | 109 | 67
7 | Cc1ccc(/C=C/S(=O)(=O)N2CCCC(c3ccc(Cl)c(Cl)c3)=N2)cc1 [Compound 169] | 131 | 133 | 134 | 195 | 128
8 | O=S(=O)(/C=C/c1ccc2ccccc2c1)N1CCCC(c2ccc(Cl)c(Cl)c2)=N1 [Compound 171] | 110 | 121 | 118 | 129 | 72
9 | O=S(=O)(/C=C/c1ccccc1)N1CCCC(c2ccc3c(c2)CCCC3)=N1 [Compound 176] | 94 | 109 | 113 | 109 | 59
10 | O=C(c1ccc(F)c(Br)c1)N1CCCC(c2ccccc2)=N1 [Compound 229] | 104 | 86 | 99 | 114 | 
11 | CCCCc1ccc(C2=NN(C(=O)c3ccc(Cl)c(Cl)c3)CCC2)cc1 [Compound 231] | 115 | 103 | 145 | 133 | 
12 | O=C(c1cc(Cl)cc(Cl)c1)N1CCCC(c2ccccc2)=N1 [Compound 232] | 110 | 115 | 115 | 121 | 
13 | CC1(C)CC(c2ccccc2)=NN(C(=O)c2ccc(Cl)c(Cl)c2)C1 [Compound 234] | 95 | 84 | 84 | 111 | 
14 | Fc1ccc(C(=S)N2CCCC(c3ccc(Cl)c(Cl)c3)=N2)cc1F [Compound 236, 3-(3,4-Dichlorophenyl)-1-(3,4-difluorothiobenzoyl)-1,4,5,6-tetrahydropyridazine] | 109 | 102 | 106 | 115 | 
15 | S=C(c1ccc(Cl)c(Cl)c1)N1CCCC(c2ccccc2)=N1 [Compound 237, 1-(3,4-dichlorothiobenzoyl)-3-phenyl-1,4,5,6-tetrahydropyridazine] | 113 | 113 | 110 | 119 | 
16 | S=C(c1ccc(Cl)c(Cl)c1)N1CCCC(c2ccc(Cl)c(Cl)c2)=N1 [Compound 243] | 118 | 92 | 96 | 89 | 
17 | S=C(c1cc(Cl)cc(Cl)c1)N1CCCC(c2ccc(Cl)c(Cl)c2)=N1 [Compound 244] | 119 | 134 | 129 | 144 | 
18 | S=C(c1cc(Cl)cc(Cl)c1)N1CCCC(c2ccccc2)=N1 [Compound 247] | 118 | 122 | 122 | 129 | 
19 | CCCCc1ccc(C2=NN(P(=O)(OC)c3ccccc3)CCC2)cc1 (centres unmarked) [Compound 251] | 104 | 111 | 91 | 111 | 109
